Where “and” joins values, the source holds several entries; their conditions need not be identical. Equal values may be shown once. Read-outs that look alike come from different tables or passages of the source. Marks after values point to notes of the source that are not given here.
What was measured:
[1] = tested on: Human Epidermoid Carcinoma KB-3-1; test: Growth of tumors in nude mice, KB-3-1 xenograft; format: in vivo; details: for % T/C on day 7 / % T/C on day 14 / % T/C on day 21: KB-3-1, days 1,5,9
Protocol: 2.4. Growth of Tumors in Nude Mice.
In these experiments, xenografts are implanted subcutaneously into the flanks of nude mice. […] Relative tumor mass compared to controls are assessed during the 21-day post-staging period.
Groups of 5 female nu/nu mice are injected with 1.5×10^6 KB-3-1 (A) or Lox cells (B). […] Relative tumor growth is determined during the experiment and % T/C calculated. Statistical analyses are Student's t-test of treated time points vs. vehicle (*, P<0.05; **, P<0.01)

HL60 = test: Cell survival assay (MTS), HL60; format: cell-based; details: Homo sapiens
KM20 = test: Cell survival assay (SRB), KM20; format: cell-based; details: 72 h
Protocol: (§1) 2.2. Cell Survival Assay: Standard Pharmacological Test Procedure. […] Compounds are incubated with cells for 3 days.

KB-V1 (MDR1++) = test: Cell survival assay (SRB), KB-V1 (MDR1++); details: for IC50: Homo sapiens
Colo205 = test: Cell survival assay (SRB), Colo205; format: cell-based; details: Homo sapiens, COLO 205, 72 h
Protocol: as §1

KB-8-5 (MDR1+) = test: Cell survival assay (SRB), KB-8-5 (MDR1+); details: for IC50: Homo sapiens
A549 = test: Cell survival assay (SRB), A549; format: cell-based; details: Homo sapiens
From the text: Cells lines with previously known mechanisms of resistance. […] Res. 8: 207-218,1996); KB-3-1 (parental derived from an epidermoid carcinoma), KB-8.5, KB-V1 (Akiyama S-I, Fojo A, Hanover J A, Pastan I, Gottesman M M. Isolation and genetic characterization of human KB cell lines resistant to multiple drugs. Somatic Cell Mol. Gen., 11: 117-126,1985; Shen D-W, Cardarelli C, Hwang J, Cornwell M, Richert N, Ishii S, Pastan I, Gottesman MM. […] J. Biol. Chem., 261: 7762-7770, 1986); and HL-60 (parental derived from human leukemia) and HL60/AR (McGrath T., Center M. S. Adriamycin resistance in HL60 cells in the absence of detectable P-glycoprotein. Biochem. Res. Commun., 145:1171-1176,1987); A549 and A549.EpoB40 (He L., Yang C.-P.H., Horwitz S. B. Mutations in p-tubulin map to domains involved in regulation of microtubule stability in epothilone-resistant cell lines. Molecular Cancer Therapeutics. 1: 3-10, 2001). HCT-15 human colon carcinoma and DLD-1 human colon carcinoma are obtained from American Tissue Culture Collection. The MX-1W carcinoma is a Wyeth variant orginally obtained as MX-1 breast carcinoma from the National Cancer Institute. Cell lines selected for resistance to Representative Example 129. […]
2.2. […] Absorbance is read on a Victor V multi-label plate reader (Perkin Elmer, Gaithersburg, Md.).

SKOV3 = test: Cell survival assay (SRB), SKOV3; format: cell-based; details: Homo sapiens, SK-OV-3, 72 h
Protocol: as §1

KB-3-1 = test: Cell survival assay (SRB), KB-3-1; format: cell-based, human
Summary of the method: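 SRB protein stain as survival read-out; IC50 = conc. giving 50% growth inhibition. Compound serially diluted, duplicate wells, 3 d exposure; TCA fixation (10% final, 1 h, 4 °C), 0.04% SRB/1% acetic acid 10 min, solubilised in 10 mM Trizma Base, A read.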

1A9 = test: Cell survival assay (SRB), 1A9; format: cell-based; details: Homo sapiens
Protocol: as §1

U87 = test: Cell survival assay (SRB), U87; format: cell-based; details: Homo sapiens, U-87 MG, 72 h
Protocol: as §1

## CN[C@H](C(=O)N[C@H](C(=O)N(C)[C@H](/C=C(\C)C(=O)O)C(C)C)C(C)(C)C)C(C)(C)c1ccccc1 [Example 129, N,β,β-trimethyl-L-phenylalanyl-N^1-[(1S,2E)-3-carboxy-1-isopropylbut-2-enyl]-N^1,3-dimethyl-L-valinamide]
[1]; IV in saline, days 1, 5, 9 post-staging, 0.5-1 mg/kg, tumors 1-2 gram
  growth inhibition of epidermoid KB-3-1 tumors: > 95%
[1]; Example 129 1.6 mg/kg IV
  % T/C on day 7: 10** %
  % T/C on day 14: 1** %
  % T/C on day 21: 23* %
HL60; HL-60, 72 h
  IC50: 0.21 ± 0.05 nM
HL60; HL-60, read-out: HL60 IC50, nM (N)
  IC50: 0.212 ± 0.048 nM
KM20
  IC50: 1.8 ± 0.6 nM
KB-V1 (MDR1++)
  RR, relative resistance: 81
  Ratio KBV1/KB: 80.6
  resistance of KB-V1 cells: 81 fold
KB-V1 (MDR1++); 72 h
  IC50: 57 nM
KB-V1 (MDR1++); 72 h, read-out: IC50 + 5.0 uM MDR-1 inhibitor
  IC50: 1.3 nM
KB-V1 (MDR1++); read-out: KB-V1 (MDR1++) IC50, nM (N)
  IC50: 77.4 nM
Colo205
  IC50: 1.5 ± 0.6 nM
KB-8-5 (MDR1+)
  RR, relative resistance: 2.4
  Ratio KB85/KB: 2.4
  resistance of KB-8-5 cells: 2.4-5 fold
KB-8-5 (MDR1+); MDR1, 72 h
  IC50: 1.9 nM
KB-8-5 (MDR1+); MDR1, 72 h, read-out: IC50 + 5.0 uM MDR-1 inhibitor
  IC50: 1.4 nM
KB-8-5 (MDR1+); MDR1, read-out: KB-8-5 (MDR1+) IC50, nM (N)
  IC50: 2.3 nM
A549; A549, 72 h
  IC50: 1.1 ± 0.5 nM
SKOV3
  IC50: 1.7 nM
KB-3-1
  IC50: 1.2 nM
KB-3-1; Homo sapiens, KB 3-1
  IC50: ~1 nM
KB-3-1; Homo sapiens, KB 3-1, 72 h
  IC50: 0.96 nM
KB-3-1; Homo sapiens, KB 3-1, 72 h, read-out: IC50 + 5.0 uM MDR-1 inhibitor
  IC50: 0.9 nM
KB-3-1; Homo sapiens, KB 3-1, 72 h, read-out: IC50 in parental cell line KB-3-1
  IC50: 1 nM
KB-3-1; Homo sapiens, KB 3-1, read-out: KB-3-1 IC50 (nM)
  IC50: 0.612 ± 0.023 nM
KB-3-1; Homo sapiens, KB 3-1, read-out: KB-3-1 IC50, nM
  IC50: 0.53 ± 0.05 nM
KB-3-1; Homo sapiens, KB 3-1, read-out: KB-3-1 IC50, nM (N)
  IC50: 0.96 nM
1A9; 1A9, 72 h
  IC50: 0.56 ± 0.09 nM
U87
  IC50: 2.4 ± 0.3 nM

## CC(=O)O[C@H]1C(=O)[C@@]2(C)[C@H]([C@H](OC(=O)c3ccccc3)[C@]3(O)C[C@H](OC(=O)[C@H](O)[C@@H](NC(=O)c4ccccc4)c4ccccc4)C(C)=C1C3(C)C)[C@]1(OC(C)=O)CO[C@@H]1C[C@@H]2O [paclitaxel, reference compound]
[1]; paclitaxel 60 mg/kg IV
  % T/C on day 7: 5** %
  % T/C on day 14: 0** %
  % T/C on day 21: 0** %
HL60; HL-60, 72 h, HL60, leukemia, 3 days, MTS assay, read-out: IC50
  IC50: 1.8 nM
HL60; HL-60, HL60 parental, Table 5, read-out: HL60 IC50, nM (N)
  IC50: 1.8 nM
KM20; KM20, colon, 3 days, SRB staining, read-out: IC50
  IC50: 8.9 ± 1.9 nM
KB-V1 (MDR1++); 72 h, KB-V1, 3 days, SRB, vehicle (DMSO), no MDR-1 inhibitor, mean of two experiments
  IC50: > 3000 nM
KB-V1 (MDR1++); 72 h, read-out: IC50 + 5.0 uM MDR-1 inhibitor, KB-V1, 3 days, SRB, + 5.0 uM MDR-1 inhibitor (heptanenitrile), mean of two experiments
  IC50: 15 nM
KB-V1 (MDR1++); read-out: KB-V1 (MDR1++) IC50, nM (N), KB-V1, high MDR1 expression, Table 3
  IC50: 5480 ± 2780 nM
Colo205; Colo205, colon, 3 days, SRB staining, read-out: IC50
  IC50: 6.9 ± 2.3 nM
KB-8-5 (MDR1+); MDR1, 72 h, KB-85, 3 days, SRB, vehicle (DMSO), no MDR-1 inhibitor, mean of two experiments
  IC50: 41.9 nM
KB-8-5 (MDR1+); MDR1, 72 h, read-out: IC50 + 5.0 uM MDR-1 inhibitor, KB-85, 3 days, SRB, + 5.0 uM MDR-1 inhibitor (heptanenitrile), mean of two experiments
  IC50: 4.4 nM
KB-8-5 (MDR1+); MDR1, read-out: KB-8-5 (MDR1+) IC50, nM (N), KB-8-5, moderate MDR1 expression, Table 3
  IC50: 63.3 ± 29 nM
KB-8-5 (MDR1+); KB-8-5 (KB-85) vs KB-3-1, in vitro
  resistance of KB-8-5 cells: 19 fold and 14 fold
A549; 72 h, A549, NSCLC, 3 days, SRB staining, read-out: IC50
  IC50: 8.8 ± 3.6 nM
SKOV3; SKOV3, ovarian, 3 days, SRB staining, read-out: IC50
  IC50: 9 nM
KB-3-1; Homo sapiens, KB 3-1, 72 h, KB-3-1, epidermoid, 3 days, SRB staining, read-out: IC50
  IC50: 3.9 ± 1.8 nM
KB-3-1; Homo sapiens, KB 3-1, 72 h, KB-3-1, 3 days, SRB, + 5.0 uM MDR-1 inhibitor (heptanenitrile), mean of two experiments, read-out: IC50 + 5.0 uM MDR-1 inhibitor
  IC50: 2.1 nM
KB-3-1; Homo sapiens, KB 3-1, 72 h, KB-3-1, 3 days, SRB, vehicle (DMSO), no MDR-1 inhibitor, mean of two experiments, read-out: IC50
  IC50: 2.2 nM
KB-3-1; Homo sapiens, KB 3-1, 72 h, amount of drug needed to kill 50% of cells after three days continuous exposure, Table 11, read-out: IC50 in parental cell line KB-3-1
  IC50: 3.9 nM
KB-3-1; Homo sapiens, KB 3-1, KB-3-1, Table 6, read-out: KB-3-1 IC50
  IC50: 2.74 ± 0.39 nM
KB-3-1; Homo sapiens, KB 3-1, KB-3-1 parental, Table 3, read-out: KB-3-1 IC50, nM (N)
  IC50: 3.9 ± 1.8 nM
KB-3-1; Homo sapiens, KB 3-1, KB-3-1 parental, Table 8, read-out: KB-3-1 IC50
  IC50: 2.66 ± 0.92 nM
1A9; 72 h, 1A9, ovarian, 3 days, SRB staining, read-out: IC50
  IC50: 5.1 ± 0.9 nM
U87; U87, glioblastoma, 3 days, SRB staining, read-out: IC50
  IC50: 25.1 nM

Source: patent US20040121965A1, “Method of treating resistant tumors” (Wyeth Holdings Corporation, priority 2002, published 2004)
